According to PMC9977294, “A parasitic fungus employs mutated eIF4A to survive on rocaglate-synthesizing Aglaia plants” (eLife, 2023):
Where “and” joins values, the source holds several entries; their conditions need not be identical. Equal entries are not always repeated.

Columns and labels:
[1] = target: T1, H. sapiens eIF4A1 Phe163His (Homo sapiens, UniProt P60842, F163H); assay: Fluorescence polarization assay, FAM-labeled [AG]10 RNA and recombinant eIF4A; format: binding; details: RocA 50 µM
T1 construct: His tag (N); made in house; host or cells: E. coli BL21 Star (DE3)
T1 sequence (P60842 whole entry F163H): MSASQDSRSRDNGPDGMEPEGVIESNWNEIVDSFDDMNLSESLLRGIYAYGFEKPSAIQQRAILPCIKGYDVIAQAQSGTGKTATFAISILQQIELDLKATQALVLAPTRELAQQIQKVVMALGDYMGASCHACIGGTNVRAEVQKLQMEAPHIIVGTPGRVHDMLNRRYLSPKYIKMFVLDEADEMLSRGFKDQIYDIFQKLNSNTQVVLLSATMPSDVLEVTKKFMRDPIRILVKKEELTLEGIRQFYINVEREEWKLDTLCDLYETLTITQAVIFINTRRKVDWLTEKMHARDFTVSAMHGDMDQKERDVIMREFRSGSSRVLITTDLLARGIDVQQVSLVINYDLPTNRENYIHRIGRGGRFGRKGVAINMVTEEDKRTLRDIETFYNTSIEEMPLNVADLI

[2] = target: T2, H. sapiens eIF4A1 WT Phe163 (Homo sapiens, UniProt P60842); assay: as above; format: binding; details: RocA 50 µM
T2 construct: His tag (N); made in house; host or cells: E. coli BL21 Star (DE3)
T2 sequence (P60842 whole entry): as the sequence (P60842 whole entry F163H) above, with H163F counted along it

For `COc1ccc([C@@]23Oc4cc(OC)cc(OC)c4[C@]2(O)[C@H](O)[C@H](C(=O)N(C)C)[C@H]3c2ccccc2)cc1` [RocA, rocaglamide A], which “fluorescence polarization, Mean” value ([1]; ADP + Pi, protein 0.075 μM) is on record?
Its value is 0.02186.

And the “fluorescence polarization, replicates” value ([1]; ADP + Pi, protein 0.075 μM)?
The value was 0.03005 and 0.01366 and 0.02186.

What about the “fluorescence polarization, Mean” value ([1]; ADP + Pi, protein 0.1 μM) of the same compound?
The value was 0.01639.

What about the “fluorescence polarization, replicates” value ([1]; ADP + Pi, protein 0.1 μM) of the same compound?
The value was 0.04645 and -0.01913 and 0.02186.

And the “fluorescence polarization, Mean” value ([1]; ADP + Pi, protein 0.5 μM)?
Its value is 0.08197.

And the “fluorescence polarization, replicates” value ([1]; ADP + Pi, protein 0.5 μM)?
Its value is 0.04645 and 0.1038 and 0.09563.

And the “fluorescence polarization, Mean” value ([1]; ADP + Pi, protein 0.75 μM)?
The value was 0.06831.

What about the “fluorescence polarization, replicates” value ([1]; ADP + Pi, protein 0.75 μM) of the same compound?
The value was 0.1448 and -0.01913 and 0.07923.

What about the “fluorescence polarization, Mean” value ([1]; ADP + Pi, protein 1 μM) of the same compound?
The value was 0.1694.

What about the “fluorescence polarization, replicates” value ([1]; ADP + Pi, protein 1 μM) of the same compound?
The value was 0.2514 and 0.1694 and 0.08743.

And the “fluorescence polarization, Mean” value ([1]; ADP + Pi, protein 5 μM)?
The value was 0.3306.

What about the “fluorescence polarization, replicates” value ([1]; ADP + Pi, protein 5 μM) of the same compound?
Its value is 0.3415 and 0.3661 and 0.2842.

What about the “fluorescence polarization, Mean” value ([1]; ADP + Pi, protein 7.5 μM) of the same compound?
The value was 0.4153.

And the “fluorescence polarization, replicates” value ([1]; ADP + Pi, protein 7.5 μM)?
The value was 0.3579 and 0.4973 and 0.3907.

What about the “fluorescence polarization, Mean” value ([1]; ADP + Pi, protein 10 μM) of the same compound?
The value was 0.5765.

And the “fluorescence polarization, replicates” value ([1]; ADP + Pi, protein 10 μM)?
Its value is 0.694 and 0.5301 and 0.5055.

And the “fluorescence polarization, Mean” value ([1]; ADP + Pi, protein 25 μM)?
Its value is 0.6311.

And the “fluorescence polarization, replicates” value ([1]; ADP + Pi, protein 25 μM)?
The value was 0.6366 and 0.7022 and 0.5546.

What about the “fluorescence polarization, Mean” value ([1]; ADP + Pi, protein 50 μM) of the same compound?
The value was 0.8251.

And the “fluorescence polarization, replicates” value ([1]; ADP + Pi, protein 50 μM)?
Its value is 0.7268 and 0.8579 and 0.8907.

What about the “fluorescence polarization, Mean” value ([1]; AMP-PNP, protein 0.01 μM) of the same compound?
Its value is -0.005464.

What about the “fluorescence polarization, Mean” value ([1]; AMP-PNP, protein 0.05 μM) of the same compound?
Its value is 0.0847.

And the “fluorescence polarization, Mean” value ([1]; AMP-PNP, protein 0.075 μM)?
Its value is 0.1721.

What about the “fluorescence polarization, Mean” value ([1]; AMP-PNP, protein 0.1 μM) of the same compound?
Its value is 0.3169.

What about the “fluorescence polarization, replicates” value ([1]; AMP-PNP, protein 0.1 μM) of the same compound?
The value was 0.2705 and 0.3525 and 0.3279.

And the “fluorescence polarization, Mean” value ([1]; AMP-PNP, protein 0.5 μM)?
The value was 0.7951.

And the “fluorescence polarization, replicates” value ([1]; AMP-PNP, protein 0.5 μM)?
The value was 0.7705 and 0.7869 and 0.8279.

What about the “fluorescence polarization, Mean” value ([1]; AMP-PNP, protein 0.75 μM) of the same compound?
Its value is 0.8306.

What about the “fluorescence polarization, replicates” value ([1]; AMP-PNP, protein 0.75 μM) of the same compound?
The value was 0.8361.

What about the “fluorescence polarization, Mean” value ([1]; AMP-PNP, protein 1 μM) of the same compound?
The value was 0.9317.

What about the “fluorescence polarization, Mean” value ([1]; AMP-PNP, protein 5 μM) of the same compound?
Its value is 0.9536.

What about the “fluorescence polarization, Mean” value ([1]; AMP-PNP, protein 7.5 μM) of the same compound?
The value was 0.8907.

And the “fluorescence polarization, Mean” value ([1]; AMP-PNP, protein 10 μM)?
The value was 0.9481.

And the “fluorescence polarization, Mean” value ([1]; AMP-PNP, protein 25 μM)?
Its value is 0.9481.

And the “fluorescence polarization, Mean” value ([1]; AMP-PNP, protein 50 μM)?
Its value is 1.

And the “fluorescence polarization, Mean” value ([2]; ADP + Pi, protein 0.01 μM)?
Its value is 0.08197.

And the “fluorescence polarization, Mean” value ([2]; ADP + Pi, protein 0.05 μM)?
Its value is 0.09836.

And the “fluorescence polarization, Mean” value ([2]; ADP + Pi, protein 0.075 μM)?
Its value is 0.06831.

And the “fluorescence polarization, Mean” value ([2]; ADP + Pi, protein 0.1 μM)?
The value was 0.1776.

And the “fluorescence polarization, Mean” value ([2]; ADP + Pi, protein 0.5 μM)?
The value was 0.5956.

And the “fluorescence polarization, Mean” value ([2]; ADP + Pi, protein 0.75 μM)?
The value was 0.735.

What about the “fluorescence polarization, Mean” value ([2]; ADP + Pi, protein 1 μM) of the same compound?
Its value is 0.6831.

And the “fluorescence polarization, Mean” value ([2]; ADP + Pi, protein 5 μM)?
The value was 0.9481.

What about the “fluorescence polarization, Mean” value ([2]; ADP + Pi, protein 7.5 μM) of the same compound?
Its value is 0.8825.

What about the “fluorescence polarization, Mean” value ([2]; ADP + Pi, protein 10 μM) of the same compound?
The value was 0.9699.

What about the “fluorescence polarization, Mean” value ([2]; ADP + Pi, protein 25 μM) of the same compound?
Its value is 1.044.

What about the “fluorescence polarization, Mean” value ([2]; ADP + Pi, protein 50 μM) of the same compound?
Its value is 1.0929.

And the “fluorescence polarization, Mean” value ([2]; AMP-PNP, protein 0.01 μM)?
The value was 0.2213.

What about the “fluorescence polarization, Mean” value ([2]; AMP-PNP, protein 0.05 μM) of the same compound?
The value was 0.7268.

And the “fluorescence polarization, Mean” value ([2]; AMP-PNP, protein 0.075 μM)?
The value was 0.4973.

And the “fluorescence polarization, Mean” value ([2]; AMP-PNP, protein 0.1 μM)?
Its value is 0.765.

What about the “fluorescence polarization, Mean” value ([2]; AMP-PNP, protein 0.5 μM) of the same compound?
The value was 1.016.

And the “fluorescence polarization, Mean” value ([2]; AMP-PNP, protein 0.75 μM)?
The value was 1.0082.

What about the “fluorescence polarization, Mean” value ([2]; AMP-PNP, protein 1 μM) of the same compound?
The value was 1.049.

And the “fluorescence polarization, Mean” value ([2]; AMP-PNP, protein 5 μM)?
Its value is 1.046.

And the “fluorescence polarization, Mean” value ([2]; AMP-PNP, protein 7.5 μM)?
The value was 1.123.

And the “fluorescence polarization, Mean” value ([2]; AMP-PNP, protein 10 μM)?
Its value is 1.156.

What about the “fluorescence polarization, Mean” value ([2]; AMP-PNP, protein 25 μM) of the same compound?
The value was 1.142.

What about the “fluorescence polarization, Mean” value ([2]; AMP-PNP, protein 50 μM) of the same compound?
The value was 1.15.
